Results taken from patent publication US10392383B2, “3-(1H-benzo[d]imidazol-2-yl)-1H-pyrazolo[4,3-b]pyridines and therapeutic uses thereof” (Samumed, LLC, priority 2015, dated 2019).

Experiments:
[1] = test system: Wnt activity (Sp5-Luc reporter, Wnt-responsive promoter) in SW480 colon carcinoma cells; assay: Wnt activity screening assay: Sp5-Luc reporter gene assay in SW480 cells; format: cell-based; settings: Homo sapiens; for EC50: overnight incubation, 10-point curve starting from 10 μM; for inhibition at 10 µM: read-out: percent inhibition at 10 μM (given for EC50 of >10 μM)
From the text: The screening assay for Wnt activity is described as follows. Reporter cell lines can be generated by stably transducing cancer cell lines (e.g., colon cancer) or primary cells (e.g., IEC-6 intestinal cells) with a lentiviral construct that includes a Wnt-responsive promoter driving expression of the firefly luciferase gene.
SW480 colon carcinoma cells were transduced with a lentiviral vector expressing luciferase with a human Sp5 promoter consisting of a sequence of eight TCF/LEF binding sites. SW480 cells stably expressing the Sp5-Luc reporter gene and a hygromycin resistance gene were selected by treatment with 150 μg/mL of hygromycin for 7 days. These stably transduced SW480 cells were expanded in cell culture and used for all further screening activities. Each compound was dissolved in DMSO as a 10 mM stock and used to prepare compound source plates. Serial dilution (1:3, 10-point dose-response curves starting from 10 μM) and compound transfer was performed using the ECHO 550 (Labcyte, Sunnyvale, Calif.) into 384-well white solid bottom assay plates (Greiner Bio-One) with appropriate DMSO backfill for a final DMSO concentration of 0.1%. For Sp5-Luc reporter gene assays, the cells were plated at 4,000 cells/well in 384-well plates with medium containing 1% fetal bovine serum and incubated overnight at 37° C. and 5% CO2. Following incubation, 20 μl of BrightGlo luminescence reagent (Promega) was added to each well of the 384-well assay plates. The plates were placed on an orbital shaker for 2 min and then luminescence was quantified using the Envision (Perkin Elmer) plate reader. Readings were normalized to DMSO only treated cells, and normalized activities were utilized for EC50 calculations using the dose-response log (inhibitor) vs. response-variable slope (four parameters) nonlinear regression feature available in GraphPad Prism 5.0 (or Dotmatics). For EC50 of >10 μM, the percent inhibition at 10 μM is provided.

[2] = test system: primary human mesenchymal stem cells (hMSCs); assay: Induction of chondrogenesis in human mesenchymal stem cells (nodule staining with Rhodamine B / Nile Red); format: cell-based; settings: for Emax: TGF-β3 (10 ng/mL) as positive control, read-out: Max. Activity as % TGF-β3 activity; for EC50: concentration required to induce 50% levels of chondrogenesis vs TGF-β3, read-out: Conc (nM) of 50% TGF-β3 activity
Procedure: Representative compounds were screened using primary human mesenchymal stem cells (hMSCs) to determine their ability to induce chondrogenesis (process by which cartilage is developed).
Human Mesenchymal Stem Cell Culture: Primary human mesenchymal stem cells (hMSCs) were purchased from Lonza (Walkersville, Md.) and expanded in Mesenchymal Stem Cell Growth Media (Lonza). Cells between passage 3 and 6 were used for the experiments.
Compound Screening: Each compound was dissolved in DMSO as a 10 mM stock and used to prepare compound source plates. For the 96 well assay, serial dilution (1:3, 6-point dose-response curves from 2700 nM to 10 nM) and compound transfer was performed using the ECHO 550 (Labcyte, Sunnyvale, Calif.) into 96-well clear bottom assay plates (Greiner Bio-One) with appropriate DMSO backfill for a final DMSO concentration of 0.03%. hMSCs were plated at 20,000 cells/well in 250 μL/well Incomplete Chondrogenic Induction Medium (Lonza; DMEM, dexamethasone, ascorbate, insulin-transferrin-selenium [ITS supplement], gentamycin-amphotericin [GA-1000], sodium pyruvate, proline and L-glutamine). TGF-β3 (10 ng/mL) was used as a positive control for differentiation while negative control wells were treated with 75 nL DMSO for normalization and calculating EC50 values. For the 384 well assay, serial dilution (1:3, 8-point dose-response curves from 5000 nM to 2.2 nM) and compound transfer was performed using the ECHO 550 (Labcyte, Sunnyvale, Calif.) into 384-well clear bottom assay plates (Greiner Bio-One) with appropriate DMSO backfill for a final DMSO concentration of 0.03%. hMSCs were plated at 8,000 cells/well in 80 μL/well Incomplete Chondrogenic Induction Medium (Lonza; DMEM, dexamethasone, ascorbate, insulin-transferrin-selenium [ITS supplement], gentamycin-amphotericin [GA-1000], sodium pyruvate, proline and L-glutamine). TGF-β3 (10 ng/mL) was used as a positive control for differentiation while negative control wells were treated with 25 nL DMSO for normalization and calculating EC50 values. Cells were incubated at 37° C. and 5% CO2 for 6 days. To image chondrogenic nodules, the cells were fixed using 4% formaldehyde (Electron Microscopy Sciences), and stained with 2 μg/mL Rhodamine B (Sigma-Aldrich) and 20 μM Nile Red (Sigma-Aldrich) [Johnson K., et. al, A Stem Cell-Based Approach to Cartilage Repair, Science, (2012), 336(6082), 717-721]. The nodules imaged (25 images per well for 96 well plates and 9 images per well for 384 well plates at 10× magnification) by excitation at 531 nm and emission at 625 nm and quantified using the CellInsight CX5 (Thermo Scientific). Area of nodules in each well was normalized to the average of 3 DMSO treated wells on the same plate using Excel (Microsoft Inc.). The normalized averages (fold change over DMSO) of 2 or 3 replicate wells for each compound concentration were calculated. Due to solubility limitations of some of the compounds, curve fitting was incomplete leading to inaccurate EC50 determinations.
Using TGF-β3 as a positive control, the concentration of representative compounds required to induce 50% levels of chondrogenesis is reported. In addition, the maximum activity of each compound and the respective dose that each compound reached maximum chondrogenesis activity is reported.

Row | SMILES | EC50 [1] [nM] | EC50 [2] [nM] | Emax [2] [%] | inhibition at 10 µM [1] [%]
1 | CC(C)(C)C(=O)Nc1cncc(-c2ccc3[nH]nc(-c4nc5c(-c6ccc(F)cc6)cccc5[nH]4)c3n2)c1 [Compound 36, N-(5-(3-(4-(4-Fluorophenyl)-1H-benzo[d]imidazol-2-yl)-1H-pyrazolo[4,3-b]pyridin-5-yl)pyridin-3-yl)pivalamide] | 3010 | 30 | 86 | 
2 | O=C(Nc1cncc(-c2ccc3[nH]nc(-c4nc5c(-c6ccc(F)cc6)cccc5[nH]4)c3n2)c1)C1CCC1 [Compound 49, N-(5-(3-(4-(4-Fluorophenyl)-1H-benzo[d]imidazol-2-yl)-1H-pyrazolo[4,3-b]pyridin-5-yl)pyridin-3-yl)cyclobutanecarboxamide] | > 10000 | 30 | 69 | 28.3
3 | Cc1ccncc1-c1ccc2[nH]nc(-c3nc4c(-c5ccncc5)cccc4[nH]3)c2n1 [Compound 117, 5-(4-Methylpyridin-3-yl)-3-(4-(pyridin-4-yl)-1H-benzo[d]imidazol-2-yl)-1H-pyrazolo[4,3-b]pyridine] | > 10000 |  | 45 | 44.9
4 | CCC(=O)Nc1cncc(-c2ccc3[nH]nc(-c4nc5c(N6CCCCC6)cccc5[nH]4)c3n2)c1 [Compound 169, N-(5-(3-(4-(Piperidin-1-yl)-1H-benzo[d]imidazol-2-yl)-1H-pyrazolo[4,3-b]pyridin-5-yl)pyridin-3-yl)propionamide] | 3800 | 1670 | 66 | 
5 | CN(C)Cc1cncc(-c2ccc3[nH]nc(-c4nc5c(N6CCCCC6)cccc5[nH]4)c3n2)c1 [Compound 181, N,N-dimethyl-1-(5-(3-(4-(piperidin-1-yl)-1H-benzo[d]imidazol-2-yl)-1H-pyrazolo[4,3-b]pyridin-5-yl)pyridin-3-yl)methanamine] | 1890 | 10 | 52 | 
6 | CN1CCN(c2cccc3[nH]c(-c4n[nH]c5ccc(-c6cncc(N)c6)nc45)nc23)CC1 [Compound 227, 5-(3-(4-(4-Methylpiperazin-1-yl)-1H-benzo[d]imidazol-2-yl)-1H-pyrazolo [4,3-b]pyridin-5-yl)pyridin-3-amine] | > 10000 |  | 50 | 48.8
7 | CC(C)C(=O)Nc1cncc(-c2ccc3[nH]nc(-c4nc5c(N6CCN(C)CC6)cccc5[nH]4)c3n2)c1 [Compound 233, N-(5-(3-(4-(4-Methylpiperazin-1-yl)-1H-benzo[d]imidazol-2-yl)-1H-pyrazolo[4,3-b]pyridin-5-yl)pyridin-3-yl)isobutyramide] | > 10000 | 30 | 52 | 7.3
8 | O=C(Cc1ccccc1)Nc1cncc(-c2ccc3[nH]nc(-c4nc5ccccc5[nH]4)c3n2)c1 [Compound 262, N-(5-(3-(1H-Benzo[d]imidazol-2-yl)-1H-pyrazolo[4,3-b]pyridin-5-yl)pyridin-3-yl)-2-phenylacetamide] | > 10000 |  | 37 | 11.2
9 | Fc1cccc(-c2cccc3[nH]c(-c4n[nH]c5ccc(C6=CCNCC6)nc45)nc23)c1 [Compound 506, 3-(4-(3-Fluorophenyl)-1H-benzo[d]imidazol-2-yl)-5-(1,2,3,6-tetrahydropyridin-4-yl)-1H-pyrazolo[4,3-b]pyridine] | > 10000 |  | 42 | 10

Continued, in another order:

Row | EC50 [1] [nM] | EC50 [2] [nM] | SMILES | Emax [2] [%] | inhibition at 10 µM [1] [%]
10 | 1080 |  | Fc1ccc(-c2cccc3[nH]c(-c4n[nH]c5ccc(-c6cncc(CN7CCCC7)c6)nc45)nc23)cc1 [Compound 42, 3-(4-(4-Fluorophenyl)-1H-benzo[d]imidazol-2-yl)-5-(5-(pyrrolidin-1-ylmethyl)pyridin-3-yl)-1H-pyrazolo[4,3-b]pyridine] | 23 | 
11 | > 10000 | 10 | Fc1ccc(-c2cccc3[nH]c(-c4n[nH]c5ccc(-c6cncnc6)nc45)nc23)cc1 [Compound 55, 3-(4-(4-Fluorophenyl)-1H-benzo[d]imidazol-2-yl)-5-(pyrimidin-5-yl)-1H-pyrazolo[4,3-b]pyridine] | 96 | 6.5
12 | 1340 | 30 | Nc1cncc(-c2ccc3[nH]nc(-c4nc5c(-c6ccccc6F)cccc5[nH]4)c3n2)c1 [Compound 59, 5-(3-(4-(2-Fluorophenyl)-1H-benzo[d]imidazol-2-yl)-1H-pyrazolo[4,3-b]pyridin-5-yl)pyridin-3-amine] | 82 | 
13 | 2620 | 30 | c1cncc(-c2ccc3[nH]nc(-c4nc5c(-c6cccnc6)cccc5[nH]4)c3n2)c1 [Compound 88, 5-(Pyridin-3-yl)-3-(4-(pyridin-3-yl)-1H-benzo[d]imidazol-2-yl)-1H-pyrazolo [4,3-b]pyridine] | 58 | 
14 | 3780 |  | CC(C)C(=O)Nc1cncc(-c2ccc3[nH]nc(-c4nc5c(-c6cccnc6)cccc5[nH]4)c3n2)c1 [Compound 93, N-(5-(3-(4-(Pyridin-3-yl)-1H-benzo[d]imidazol-2-yl)-1H-pyrazolo[4,3-b]pyridin-5-yl)pyridin-3-yl)isobutyramide] | 36 | 
15 | 2540 |  | CC(C)Nc1cncc(-c2ccc3[nH]nc(-c4nc5c(-c6cccnc6)cccc5[nH]4)c3n2)c1 [Compound 96, N-Isopropyl-5-(3-(4-(pyridin-3-yl)-1H-benzo[d]imidazol-2-yl)-1H-pyrazolo [4,3-b]pyridin-5-yl)pyridin-3-amine] | 24 | 
16 | > 10000 | 300 | O=C(Cc1ccccc1)Nc1cncc(-c2ccc3[nH]nc(-c4nc5c(-c6ccncc6)cccc5[nH]4)c3n2)c1 [Compound 122, 2-Phenyl-N-(5-(3-(4-(pyridin-4-yl)-1H-benzo[d]imidazol-2-yl)-1H-pyrazolo [4,3-b]pyridin-5-yl)pyridin-3-yl)acetamide] | 75 | 44.4
17 | > 10000 | 2700 | CCCC(=O)Nc1cncc(-c2ccc3[nH]nc(-c4nc5c(-c6ccncc6)cccc5[nH]4)c3n2)c1 [Compound 129, N-(5-(3-(4-(Pyridin-4-yl)-1H-benzo[d]imidazol-2-yl)-1H-pyrazolo[4,3-b]pyridin-5-yl)pyridin-3-yl)butyramide] | 59 | 0
18 | > 10000 | 1670 | CCNCc1cncc(-c2ccc3[nH]nc(-c4nc5c(-c6ccccn6)cccc5[nH]4)c3n2)c1 [Compound 146, N-((5-(3-(4-(Pyridin-2-yl)-1H-benzo[d]imidazol-2-yl)-1H-pyrazolo[4,3-b]pyridin-5-yl)pyridin-3-yl)methyl)ethanamine] | 279 | 41.6
